Data published in ChEMBL document CHEMBL1128160, “An attempt to synthesize prostanoid thromboxane A2 antagonists with an additional prostacyclin like quality” (Bioorg Med Chem Lett, 1995).

Key:
[1] = target: T1, Thromboxane A2 receptor (Homo sapiens) (UniProt P21731); test: Competition factor for Thromboxane A2 receptor binding affinity CF = (IC50-test)/(IC50-standard)
T1 sequence (whole entry): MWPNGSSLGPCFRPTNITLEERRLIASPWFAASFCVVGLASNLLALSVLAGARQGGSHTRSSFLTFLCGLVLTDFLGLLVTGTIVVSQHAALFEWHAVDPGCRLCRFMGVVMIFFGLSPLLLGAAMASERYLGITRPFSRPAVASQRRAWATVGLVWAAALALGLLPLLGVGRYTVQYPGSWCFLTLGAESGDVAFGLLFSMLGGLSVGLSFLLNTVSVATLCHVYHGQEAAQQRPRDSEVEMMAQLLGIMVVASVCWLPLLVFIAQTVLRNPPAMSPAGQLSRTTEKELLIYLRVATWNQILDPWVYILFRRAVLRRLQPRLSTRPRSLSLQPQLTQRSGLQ

Homo sapiens = species on record: Homo sapiens; test: Inhibition of ADP-induced aggregation of human platelet rich plasma; assay type: functional
[2] = target: T1, Thromboxane A2 receptor (Homo sapiens); test: Competition factor was evaluated for Thromboxane A2 receptor binding affinity CF = (IC50-test)/(IC50-standard)
[3] = target: T1, Thromboxane A2 receptor (Homo sapiens); test: Competition factor was evaluated for Thromboxane A2 receptor binding affinity CF = (IC50-test)/(IC50-standard) by using [3H]iloprost agonist at 10 nM

Structure (SMILES) | CF [1] | IC50 (Homo sapiens) [nM] | CF [2] | CF [3]
O=C(O)CCC/C=C\C[C@H]1C(=O)CC[C@@H]1NS(=O)(=O)c1ccc(Cl)cc1 | 2.6 | 640 |  | 
O=C(O)CC/C=C\C[C@@H]1[C@@H](NS(=O)(=O)c2ccc(F)cc2)CC[C@@H]1O | 200 | 1600 |  | 
Cc1ccc(S(=O)(=O)N[C@H]2CC/C(=N\OCc3ccc(C(F)(F)F)cc3)[C@@H]2C/C=C\CCCC(=O)O)cc1 | < 1 | 180 |  | 
Cc1ccc(S(=O)(=O)N[C@H]2CC[C@H](O)[C@@H]2C/C=C\CCCC(=O)O)cc1 | 7 | 500 |  | 
O=C(O)CCC/C=C\C[C@H]1/C(=N/OC(c2ccccc2)c2ccccc2)CC[C@@H]1NS(=O)(=O)c1ccc(F)cc1 | 6.9 | 17000 |  | 
O=C(O)CCC/C=C\C[C@H]1/C(=N/OCC2CCCCC2)CC[C@@H]1NS(=O)(=O)c1ccc(F)cc1 | 0.5 | 1800 |  | 
O=C(O)CCC/C=C\C[C@H]1/C(=N/OCc2ccc(C(F)(F)F)cc2)CC[C@@H]1NS(=O)(=O)c1ccc(Cl)cc1 | 0.07 | 200 |  | 
O=C(O)CCC/C=C\C[C@@H]1[C@H](O)CC[C@H]1NS(=O)(=O)c1ccc(F)cc1 | 26 | 6000 |  | 
O=C(O)CCC/C=C\C[C@@H]1[C@@H](NS(=O)(=O)c2ccc(Cl)cc2)CC[C@@H]1O | 0.68 | 190 |  | 
Cc1ccc(S(=O)(=O)N[C@@H]2CC[C@@H](O)[C@H]2C/C=C\CCCC(=O)O)cc1 | 340 | 5800 |  | 

More lines, now with the values ahead:

CF [1] | IC50 (Homo sapiens) [nM] | CF [2] | CF [3] | Structure (SMILES)
135 | 2500 |  |  | Cc1ccc(S(=O)(=O)N[C@H]2CC[C@H](O)[C@@H]2C/C=C\CCC(=O)O)cc1
31 | 1800 |  |  | O=C(O)CC/C=C\C[C@@H]1[C@@H](NS(=O)(=O)c2ccc(Cl)cc2)CC[C@@H]1O
 | 1700 | 0.62 |  | O=C(O)CCC/C=C\C[C@H]1/C(=N/OCC2CCCCC2)CC[C@@H]1NS(=O)(=O)c1ccc(Cl)cc1
6.5 | 670 |  |  | Cc1ccc(S(=O)(=O)N[C@H]2CCC(=O)[C@@H]2C/C=C\CCCC(=O)O)cc1
2.1 | 640 |  |  | O=C(O)CCC/C=C\C[C@@H]1[C@@H](NS(=O)(=O)c2ccc(F)cc2)CC[C@@H]1O
0.13 | 620 |  |  | O=C(O)CCC/C=C\C[C@H]1/C(=N/OCc2ccc(C(F)(F)F)cc2)CC[C@@H]1NS(=O)(=O)c1ccc(F)cc1
1 | 600 |  |  | Cc1ccc(S(=O)(=O)N[C@H]2CC/C(=N\OCC3CCCCC3)[C@@H]2C/C=C\CCCC(=O)O)cc1
175 | 800 |  | 25 | C[C@@H]1CC/C(=N\OC(c2ccccc2)c2ccccc2)[C@H]1C/C=C\CCCC(=O)O
85 | 2200 |  |  | O=C(O)CCC/C=C\C[C@@H]1[C@H](O)CC[C@H]1NS(=O)(=O)c1ccc(Cl)cc1
4.5 | 5600 |  |  | Cc1ccc(S(=O)(=O)N[C@H]2CC/C(=N\OC(c3ccccc3)c3ccccc3)[C@@H]2C/C=C\CCCC(=O)O)cc1
6.4 | 500 |  |  | O=C(O)CCC/C=C\C[C@H]1C(=O)CC[C@@H]1NS(=O)(=O)c1ccc(F)cc1
4 | 17000 |  |  | O=C(O)CCC/C=C\C[C@H]1/C(=N/OC(c2ccccc2)c2ccccc2)CC[C@@H]1NS(=O)(=O)c1ccc(Cl)cc1
